Measured values published in patent US20030083266A1 (priority 2002, published 2003).

How the values were obtained:
PC12 cells [1] = assay: In vitro extracellular antioxidation: [3H]-thymidine uptake by PC12 cells under dopamine oxidative stress; type: cell-based; settings: 0.5 mM dopamine 24 hours
Description: Compounds A-D were assayed in vitro for their extracellular antioxidant activities. The assays were carried out with PC12 cells (Offen et al., 1996) subjected to a high dose of dopamine which confers oxidative stress to these cells by forming oxidation products during its oxidation in the growth medium, i.e., extracellularly.
With reference now to FIG. 1. To this end, PC12 cells were subjected to high concentration of dopamine (0.5 mM) for 24 hours in the presence of increasing concentrations (0 mM, 0.03 mM, 0.1 mM, 0.3 mM and 0.9 mM) of the various compounds A-D. [^3H]-thymidine was added to the cells (1 μCi/100,000 cells) six hours before the end of the 24 hours period. Due to the high lipophylicity of compounds A-D, the compounds were first dissolved in dimethyl sulfoxide (DMSO) and then in water and were applied to the cells in a final concentration of 3% DMSO. The effect of 3% DMSO on the cells was tested separately and the values presented in FIG. 1 are after the appropriate corrections.
[^3H]-thymidine uptake was measured in triplicate wells containing cells pretreated with dopamine alone and dopamine with each of compounds A-D at the concentrations as indicated above. The results presented in FIG. 1 show the mean of triplicate wells taken from three independent cell batches, wherein control represent cells treated only with 3% DMSO and is defined as 100% [^3H]-thymidine uptake (not shown).

PC12 cells [2] = assay: In vitro intracellular antioxidation: [3H]-thymidine uptake by PC12 cells under 6-hydroxy-dopamine oxidative stress; type: cell-based; settings: 0.5 mM 6-hydroxy-dopamine 24 hour
Description: One of the main characteristics of the oxidative effects in PC12 cells are mimicked by 6-hydroxy-dopamine which is a false neurotransmitter taken up by the cells. Therefore, 6-hydroxy-dopamine was used as another oxidative agent and tested the protective antioxidant efficiencies of compounds A-D within the cells.
With reference now to FIG. 2. To this end, PC12 cells were subjected to high concentration (0.5 mM) of 6-hydroxy-dopamine (6-HO-DA) for 24 hour, in the presence of 0.3 mM or 0.8 mM of compounds A-D or 1 mM of reduced glutathione (GSH) a natural antioxidant, as shown in the front row of FIG. 2. A similar set of cells was treated with the same concentrations of compounds A-D and of reduced glutathione, yet without 6-hydroxy-dopamine, as shown in the back row of FIG. 2. Due to the high lipophylicity of the antioxidants used, they were first dissolved in dimethyl sulfoxide (DMSO), then in water and were applied to the cells in a final concentration of 3% DMSO. [^3H]-thymidine was added to the cells (1 μCi/100,000 cells) six hours prior to the end of the 24 hour period.
The results presented in FIG. 2 are the mean of triplicate wells taken from three independent cell batches, wherein control represent untreated cells and is defined as 100% [^3H]-thymidine uptake. The effect of DMSO on the cells was tested separately as shown.

[3] = tested on: endogenous reduced glutathione (GSH); assay: In vivo antioxidation: striatum/serum endogenous GSH after IP injection; set-up: species or system Balb/c mice; settings: mice, injected IP, 100-300 mg/kg, three hours post injection
Description: With reference now to FIG. 3. To this end, three groups of two months old Balb/c mice containing two animals in each group were injected intraperitonealy (IP) with 100-300 mg/kg body weight of compound A. Blood samples were drawn from the tail three hours post injection and then the animals were sacrificed and either the corpus striatum or the whole brain were removed and analyzed for GSH levels.
GSH levels were determined using the experimental procedures as described hereinbelow and/or the GSH-400 kit (Oxis International, Inc.).
Preparation of brain homogenates: Animals were rapidly killed and exsanguinated to remove excess blood from the brain. The brain of each animal was rinsed in a beaker containing water, lightly blotted to dry and were weighted. The striatums were transferred into a hand-homogenizer tube and each was homogenized using a constant number (e.g., 20) of up and down strokes of the hand-homogenizer pestle. Each of the homogenates was poured into a centrifuge tube and centrifuged for 10,000×g for 5 min. The supernatant was used for GSH determination as follows.
GSH Assay: For each measurement, 200 μl of sample were incubated with 20 μl DTNB [5,5′ dithio bis(2-nitrobenzoic acid)] for 1 hour in 37° C. Final absorbance was measured at 400 nm. Similar results were obtained using the GSH-400 kit. […]

[4] = Crossing the blood-brain-barrier: compound level in brain extracts by HPLC after IP injection; type: in vivo, C57BL/6J mice; settings: mice
Description: Detection of compound j (referred to in this Example also as CEA) was established using high performance liquid chromatography (HPLC). To this end, CEA was treated with a fluorescent thiolyte reagent (monobromobimane reagent) and analyzed on an HPLC column.
Crossing the blood-brain-barrier: In vivo experiments were carried out on C57BL/6J mice (15 grams) injected IP with compound J. After incubation (15 min, 60 min or 4 hours) the mice were anesthetized with ether and blood samples were drawn. Then mice underwent perfusion with 50 ml of saline, injected into the right ventricle. The levels of […] in the brain and in the plasma were detected by selective fluorescent labeling using high performance liquid chromatography (HPLC).
Increasing amounts of compound J were injected IP and 15 min later, mice were perfused with saline and compound J levels in the brain extracts were determined by HPLC chromatography (FIG. 5b), as compared to a control, pure, uninjected compound J (FIG. 5a).

GSH = assay: Brain GSH levels after IP injection of compound J (HPLC); type: in vivo, C57BL/6J mice; settings: mice brain extract after IP injection
[5] = tested on: Neuroblastoma SHSY5Y (NB) cells; assay: Protection from oxidative stress in vitro, neutral red survival assay; type: cell-based
Description: Protection from oxidative stress in vitro: Neuroblastoma SHSY5Y (NB) cells were maintained in Dulbeco's Modified Eagle's Medium (DMEM), supplemented with 8% FCS and 8% horse serum, penicillin (25 μg/ml), streptomycin (25 μg/ml), 2 mM L-glutamine and 400 μg/ml G418 (Gibco/BRL). For protection experiments cells were subcultured (in 2% serum) to poly-L-lysine-coated 96-well microtiter plates (Nunc), 100 μl of 5×10^5 cells/ml, CEA was applied to the cells in each well and 4 hours later DA, L-dopa (levodopa), 6-OHDA and MPP+ were added for 24 hours.
Survival was assayed by adding neutral red (0.34%, Sigma) to cells in DCCM-1 medium (0.1 ml/well, Bet-Haemek) and incubation for 2 hour at 37° C. The cells were then washed with cold PBS containing 10 mM MgCl2 and the dye was dissolved in 50% ethanol in 50% Somerson buffer (70 mM sodium citrate, 30 mM citric acid, 0.1 N HCl). ELISA reader (590 nm) was used to measure the remaining color intensity.

CCOC(=O)C(NC(C)=O)C(C)(C)S (stereo not shown) [compound B, N-acetyl-penicillamine ethyl ester]
Increase of [3H]-thymidine uptake (PC12 cells [1]; compound at 0.03 mM): Ca. 1.5

CC(=O)N[C@H](C(=O)O)C(C)(C)S [compound C, N-acetyl-β,β-dimethyl cysteine]
Increase of [3H]-thymidine uptake of 6-hydroxy-dopamine treated cells (PC12 cells [2]; compound at 0.3 mM): Ca. 1.5

CCOC(=O)[C@H](CS)NC(C)=O [compound A, N-acetyl cysteine ethyl ester]
Crossing of the blood brain barrier [3]: crosses the blood brain barrier | Level of endogenous GSH at the striatum [3]: increases the level of endogenous GSH

CC(=O)NC(CS)C(N)=O (stereo not shown) [compound J]
Compound level in the brain ([4]; IP injection 0.25-4 mg, 15 min, brain extracts): concentration-dependent increase | Crossing of the BBB ([4]; IP injection, fluorescent labeling and HPLC): crosses the BBB | Increase of GSH levels over untreated animals (GSH): up to 46% | Cell survival ([5]; 0.3 mM compound, neutral red assays): up to 95% | Protection of cells against toxicity (>50%) of DA, L-dopa, 6-OHDA and MPP+ ([5]; compound at 0.1 mM, DA, L-dopa, 6-OHDA 0.1-0.25 mM, MPP+ 0.5-2 mM, 24 hours): protect the cells

CCOC(=O)CNC(=O)C(CS)NC(=O)CCC(N)C(=O)O (stereo not shown) [compound D, Glutathione ethyl ester]
Increase of [3H]-thymidine uptake (PC12 cells [1]; compound at 0.03 mM): Ca. 2.5 | Increase of [3H]-thymidine uptake (PC12 cells [1]; compound at 0.1 mM): Ca. 2.5 | Increase of [3H]-thymidine uptake of 6-hydroxy-dopamine treated cells (PC12 cells [2]; compound at 0.3 mM): Ca. 3.5 | Increase of [3H]-thymidine uptake of 6-hydroxy-dopamine treated cells (PC12 cells [2]; compound at 0.8 mM): Ca. 3.5
